Where “and” joins values, the source holds several entries; their conditions need not be identical. Equal entries are not always repeated.
How the values were obtained:
MeV L1708 = MeV L1708 (Measles virus, UniProt Q9WMB3); test: Biolayer interferometry, MeV L1708 WT; type: binding; conditions: for S5 C BLI sensorgram response / S5 B BLI sensorgram response: MeV L1708 WT; for steady-state BLI sensor response: S7 B
MeV P-L complexes = MeV P-L complexes (Measles virus, UniProt Q9WMB3); test: In vitro RdRP assay on 25-nt RSV promoter template (de novo initiation and back-priming); conditions: 25-mer RSV promoter template
MeV [1] = test: Cell-based anti-MeV assays of earlier work
[2] = system: canine distemper virus (CDV); conditions: oral treatment initiated at first day of viremia; cited from earlier work
[3] = system: MeV L-P complexes L H589Y; type: biochemical; conditions: de novo initiation, L H589Y vs WT
MeV [4] = test: Antiviral dose-response assay, MeV-NanoPEST reporter virus in Vero-hSLAM cells
WT MeV L-P complexes = WT MeV L-P complexes (Measles virus, UniProt Q9WMB3); test: Primer extension RdRP assay, GTP only (first nucleotide), L WT; type: biochemical; conditions: 5 h, read-out: first nucleotide incorporation signal (FIG 4D densitometry, first row = 100)
[5] = system: MeV L-P complexes L T776A; type: biochemical; conditions: primer extension, L T776A vs WT

Cn1nc(C(F)(F)F)cc1C(=O)Nc1ccc(S(=O)(=O)N2CCCC[C@H]2CCN2CCOCC2)cc1 [ERDRP-0519, S(=O)(=O)(N1[C@H](CCN2CCOCC2)CCCC1)c1ccc(NC(=O)c2n(C)nc(C(F)(F)F)c2)cc1]
S5 C BLI sensorgram response (MeV L1708; 250 nM, time 0.4 s): 0.0001322 | S5 B BLI sensorgram response (MeV L1708; 250 nM, time 0.6 s): -0.004917 | S5 C BLI sensorgram response (MeV L1708; 250 nM, time 0.6 s): 0.0008364 | S5 B BLI sensorgram response (MeV L1708; 1 µM, time 0 s): -0.01251 | S5 C BLI sensorgram response (MeV L1708; 1 µM, time 0 s): -0.001989 | S5 B BLI sensorgram response (MeV L1708; 1 µM, time 0.2 s): -0.01197 | S5 C BLI sensorgram response (MeV L1708; 1 µM, time 0.2 s): -0.00137 | S5 B BLI sensorgram response (MeV L1708; 1 µM, time 0.4 s): -0.01055 | S5 C BLI sensorgram response (MeV L1708; 1 µM, time 0.4 s): -0.0005476 | S5 B BLI sensorgram response (MeV L1708; 1 µM, time 0.6 s): -0.009819 | S5 B BLI sensorgram response (MeV L1708; 5 µM, time 0 s): -0.006751 | S5 B BLI sensorgram response (MeV L1708; 5 µM, time 0.2 s): -0.006914 | S5 C BLI sensorgram response (MeV L1708; 5 µM, time 0.2 s): 0.003468 | S5 B BLI sensorgram response (MeV L1708; 5 µM, time 0.4 s): -0.007277 | S5 C BLI sensorgram response (MeV L1708; 5 µM, time 0.4 s): 0.003613 | S5 B BLI sensorgram response (MeV L1708; 5 µM, time 0.6 s): -0.007135 | S5 C BLI sensorgram response (MeV L1708; 5 µM, time 0.6 s): 0.003495 | S5 B BLI sensorgram response (MeV L1708; 10 µM, time 0 s): -0.00589 | S5 C BLI sensorgram response (MeV L1708; 10 µM, time 0 s): -0.0007761 | S5 B BLI sensorgram response (MeV L1708; 10 µM, time 0.2 s): -0.006049 | S5 C BLI sensorgram response (MeV L1708; 10 µM, time 0.2 s): -0.00071 | S5 B BLI sensorgram response (MeV L1708; 10 µM, time 0.4 s): -0.006539 | S5 C BLI sensorgram response (MeV L1708; 10 µM, time 0.4 s): -0.000595 | S5 B BLI sensorgram response (MeV L1708; 10 µM, time 0.6 s): -0.006943 | S5 C BLI sensorgram response (MeV L1708; 10 µM, time 0.6 s): -0.0003228 | S5 B BLI sensorgram response (MeV L1708; 50 µM, time 0 s): -0.01268 | S5 C BLI sensorgram response (MeV L1708; 50 µM, time 0 s): 0.001755 | S5 B BLI sensorgram response (MeV L1708; 50 µM, time 0.2 s): -0.01168 | S5 C BLI sensorgram response (MeV L1708; 50 µM, time 0.2 s): 0.001652 | S5 B BLI sensorgram response (MeV L1708; 50 µM, time 0.4 s): -0.01101 | S5 C BLI sensorgram response (MeV L1708; 50 µM, time 0.4 s): 0.001542 | S5 B BLI sensorgram response (MeV L1708; 50 µM, time 0.6 s): -0.01006 | S5 C BLI sensorgram response (MeV L1708; 50 µM, time 0.6 s): 0.001922 | steady-state BLI sensor response (MeV L1708; 0.003 uM): 0.007597 | steady-state BLI sensor response (MeV L1708; 0.027 uM): 0.01138 | steady-state BLI sensor response (MeV L1708; 0.08 uM): 0.01081 | steady-state BLI sensor response (MeV L1708; 0.74 uM): 0.01443 | steady-state BLI sensor response (MeV L1708; 2.22 uM): 0.01474 | steady-state BLI sensor response (MeV L1708; 6.67 uM): 0.01921 | 3'-elongation after backpriming (MeV P-L complexes): equivalently dose-dependently blocked | IC50 (MeV [1]; Figure 7A source data): 60 nM | IC50 (MeV [1]; −log10(EC50) of literature EC50): 60.1 nM | survival [2]: all treated animals survived | increase in IC50 value [3]: 24 fold | EC50 (MeV [4]): 200 nM | MeV inhibition, normalized reporter signal (Figure 5B) (MeV [4]; cpd concentration 0.009145): 105.005 and 86.0196 | MeV inhibition, normalized reporter signal (Figure 5B) (MeV [4]; cpd concentration 0.027435): 126.572 and 81.3143 | MeV inhibition, normalized reporter signal (Figure 5B) (MeV [4]; cpd concentration 0.082305): 101.803 and 75.4494 | MeV inhibition, normalized reporter signal (Figure 5B) (MeV [4]; cpd concentration 0.246914): 43.9689 and 25.1431 | MeV inhibition, normalized reporter signal (Figure 5B) (MeV [4]; cpd concentration 0.740741): 3.4563 and 3.061 | MeV inhibition, normalized reporter signal (Figure 5B) (MeV [4]; cpd concentration 2.22222): 0.8619 and 1.175 | MeV inhibition, normalized reporter signal (Figure 5B) (MeV [4]; cpd concentration 6.66667): 0.4673 and 0.8278 | remaining activity at 0.0152416 µM (WT MeV L-P complexes; 0.0152416 µM): 92.5% | remaining activity at 0.0457247 µM (WT MeV L-P complexes; 0.0457247 µM): 96.8% | remaining activity at 0.137174 µM (WT MeV L-P complexes; 0.137174 µM): 64.3% | remaining activity at 0.411523 µM (WT MeV L-P complexes; 0.411523 µM): 40.5% | remaining activity at 1.23457 µM (WT MeV L-P complexes; 1.23457 µM): 30.4% | remaining activity at 3.7037 µM (WT MeV L-P complexes; 3.7037 µM): 30% | remaining activity at 11.1111 µM (WT MeV L-P complexes; 11.1111 µM): 27.6% | remaining activity at 33.3333 µM (WT MeV L-P complexes; 33.3333 µM): 26% | IC50 increase [5]: 2.5 fold

From paper PMC7935272 (PLoS Pathogens, 2021)
